Marks after values point to notes of the source that are not given here.
Experiments:
[1] = system: Staphylococcus aureus; set-up: method as in PMID 28789896, PMID 31303986, PMID 33369262; settings: previously reported; cited from earlier work
[2] = system: M. pneumoniae strains FH, M52, Mac, Bru, and M129-B7; assay: Propidium iodide (PI) uptake assay, membrane disruption; type: cell-based, Mycoplasma pneumoniae; settings: 10 μmol/L AMP, PI 5 μg/mL in PBS, triplicate
Experimental: We performed the PI uptake assays based on the previously described method with modification for M. pneumoniae. M. pneumoniae strains FH, M52, Mac, Bru, and M129-B7 were cultured as described above. Briefly, the 90 mL culture was done in PPLO-based medium for 6 days to observe the medium color change from red to yellow. The mycoplasma in the culture medium was centrifuged at 11,740g for 30 min at 4°C, and the precipitation was suspended in 20 mL phosphate buffered saline (PBS) by passing through a 60 mm-length 25-gauge needle (Top Corporation, Tokyo, Japan) three times. The suspension was centrifuged again at 11,740g for 30 min at 4°C, and 2.25 mL PBS was added to the precipitation. The 2× mycoplasma suspension was prepared by passing through a 60 mm-length 25-gauge needle five times. When using heat-killed M. pneumoniae (HKMp), the 2× suspension was heated at 95°C for 10 min. The 2× PI assay reaction mix based on PBS containing 20 μmol/L of an antimicrobial peptide or saline, and 10 μg/mL PI (Dojindo, Tokyo, Japan). Each assay was performed with a 96-well black flat-bottomed plate (PerkinElmer, Waltham, MA, USA) using a final cell volume of 100 μL prepared by mixing 2× mycoplasma suspension and 2× PI assay reaction mix at 1:1 in volume ratio. The intercalation fluorescence of PI was measured by using an Infinite 200 Pro F Plex microplate reader (Tecan, Zürich, Switzerland) every 2 min, with an excitation filter at 535 nm (half width: 25 nm) and an emission filter at 620 nm (half width: 20 nm). The averages and standard deviations of the fluorescent intensities was calculated, and normalised by an average fluorescence between 10 and 20 min of HKMp as 100% relative fluorescence, and by a minimum average fluorescence between 0 and 20 min of whole data as 0% relative fluorescence.

[3] = system: Mycoplasma pneumoniae FH; assay: Biofilm assay (crystal violet, absorbance at 550 nm), strain FH; settings: initial 10^5 CFU/mL; for Effect in the biofilm assay: 0% CO2, up to 30 μmol/L; for Concentration with statistically significant effect in the biofilm assay: 0% CO2, 6-8 days at 37°C, p < 0.005, Shirley-Williams test
[4] = system: Escherichia coli; set-up: method as in PMID 28789896, PMID 31303986, PMID 33369262; settings: previously reported; cited from earlier work
[5] = previously reported; cited from earlier work
[6] = system: Mycoplasma pneumoniae FH; assay: Killing assay, strain FH; settings: 30 μmol/L AMP, 3 days; for Killing assay result compared with saline: Welch's t test, p < 0.005; for Cell numbers (CFU/mL) after treatment with antimicrobial peptides, killing assay: initial 10^6 CFU/mL, triplicate, mean, saline 3.59×10^6
[7] = system: Pseudomonas aeruginosa; set-up: method as in PMID 28789896, PMID 31303986, PMID 33369262; settings: previously reported; cited from earlier work
[8] = system: Staphylococcus epidermidis; set-up: method as in PMID 28789896, PMID 31303986, PMID 33369262; settings: previously reported; cited from earlier work
[9] = system: Mycoplasma pneumoniae M52; assay: Colorimetric and biofilm assays, strain M52; settings: up to 30 μmol/L, Shirley-Williams test
[10] = system: Mycoplasma pneumoniae Bru; assay: Killing assay, strain Bru; settings: AMP 30 μmol/L, 3 days, initial 10^6 CFU/mL, triplicate, mean, saline 3.48×10^6
[11] = system: Mycoplasma pneumoniae Mac; assay: Colorimetric and biofilm assays, strain Mac; settings: biofilm assay, p < 0.005
[12] = system: Mycoplasma pneumoniae M52; assay: Killing assay, strain M52; settings: AMP 30 μmol/L, 3 days, initial 10^6 CFU/mL, triplicate, mean, saline 3.62×10^6
[13] = system: Mycoplasma pneumoniae M129-B7; assay: Killing assay, strain M129-B7; settings: AMP 30 μmol/L, 3 days, initial 10^6 CFU/mL, triplicate, mean, saline 3.79×10^6
[14] = system: Mycoplasma pneumoniae M129-B7; assay: Colorimetric and biofilm assays, strain M129-B7; type: cell-based; settings: strain M129-B7; biofilm assay; p < 0.005
[15] = system: Mycoplasma pneumoniae Bru; assay: Colorimetric and biofilm assays, strain Bru; settings: biofilm assay, p < 0.005
[16] = system: Mycoplasma pneumoniae Mac; assay: Killing assay, strain Mac; settings: AMP 30 μmol/L, 3 days, initial 10^6 CFU/mL, triplicate, mean, saline 4.19×10^6
[17] = system: Mycoplasma pneumoniae FH; assay: Colorimetric assay (absorbance at 560 nm), strain FH; settings: initial 10^5 CFU/mL, 0% CO2, up to 30 μmol/L
[18] = five strains, read every 2 min up to 20 min
[19] = strains FH, M129-B7, and M52, up to 20 min

Row | Substance | MIC, Gram-positive, S. a. [1] [µM] | PI fluorescence compared with live Mp without peptide [2, 18] | PI fluorescence compared with live Mp without peptide [2, 19] | Effect in the biofilm assay [3] | MIC, Gram-negative, E. c. [4] [µM] | Haemolysis (concentration with haemolytic effect) [5] [µmol/L] | Killing assay result compared with saline [6] | Cell numbers (CFU/mL) after treatment with antimicrobial peptides, killing assay [6] | MIC, Gram-negative, P. a. [7] [µM] | MIC, Gram-positive, S. e [8] [µM] | Effect in the biofilm assay [9] | Titre (CFU/mL), killing assay [10] | Concentration with statistically significant effect in the biofilm assay [11] [µmol/L] | Titre (CFU/mL), killing assay [12] | Concentration with statistically significant effect in the biofilm assay [3] [µmol/L] | Titre (CFU/mL), killing assay [13] | Concentration with statistically significant effect in the biofilm assay [14] [µmol/L] | Concentration with statistically significant effect in the biofilm assay [15] [µmol/L] | Titre (CFU/mL), killing assay [16] | Effect in the colorimetric assay [17]
1 | H-GIGKFLHSUKKFGKUFV-NH2 [17base-Aib, Mag2-17base derivative with 2-aminoisobutyric acid (Aib) insertions] | 12.5 | slight fluorescent shift | fluorescence of live Mp without any peptides were higher | no difference | 3.13 | >100 | limited influence on the growth | 3.75×10^6 CFU/mL | 1.56 | 3.13 | – | – | – | – | – | – | – | – | – | –
2 | H-KLLKKAGKLLKKAGKLLKKAG-NH2 [Stripe, rationally designed AMP, helical structure and positions of positively charged lysine residues] | 12.5 | – | fluorescence of live Mp without any peptides were higher | no difference | 3.13 | – | limited influence on the growth | 3.71×10^6 CFU/mL | 1.56 | 1.56 | – | – | – | – | – | – | – | – | – | –
3 | H-KKKLAKLKLGAKLKLKGKLGA-NH2 [Random, rationally designed AMP, helical structure and positions of positively charged lysine residues] | 100 | fluorescence of live Mp without any peptides were higher | – | no difference | 12.5 | – | limited influence on the growth | 4.93×10^6 CFU/mL | 3.13 | 6.25 | – | – | – | – | – | – | – | – | – | –
4 | H-GIKKFLKSZKKFVKZFK-NH2 [17base-Hybrid] | 3.13 | the fluorescence arose | – | – | 3.13 | – | significant difference | 3.50×10^5 CFU/mL | 3.13 | 1.56 | slight drop of biofilm production | 1.46×10^5 ^b CFU/mL | ≤ 30 | 1.16×10^5 ^b CFU/mL | 8 | 2.21×10^5 ^b CFU/mL | ≤ 30 | ≤ 30 | 5.80×10^4 ^b CFU/mL | –
5 | H-GIGKFLHSAKKFGKAFV-NH2 [Mag2-17base] | 50 | fluorescence of live Mp without any peptides were higher | – | no difference | 3.13 | >100 | limited influence on the growth | 4.86×10^6 CFU/mL | 3.13 | 12.5 | – | – | – | – | – | – | – | – | – | –
6 | H-GIGKFLHSAKKFGKAFVGEIMNS-NH2 [Mag2, magainin 2, natural AMP isolated from the skin of Xenopus laevis (the African clawed frog)] | 100 | fluorescence of live Mp without any peptides were higher | – | – | 3.13 | – | limited influence on the growth | 4.06×10^6 CFU/mL | 12.5 | 25 | – | – | – | – | 30 | – | – | – | – | no difference
7 | H-GIGKFLHSZKKFGKZFV-NH2 [17base-Ac6c, Mag2-17base derivative with 1-aminocyclohexylcarboxylic acid (Ac6c) insertions] | 3.13 | the fluorescence arose | – | – | 3.13 | 3 | significant difference | 1.11×10^6 CFU/mL | 6.25 | 3.13 | – | – | – | – | 30 | – | – | – | – | –

From PMC8786148, “The effects of magainin 2-derived and rationally designed antimicrobial peptides on Mycoplasma pneumoniae” (PLoS ONE, 2022)
